Experimental data published in patent US20260097133A1, “EPIGENETIC EDITING TOOL FOR TARGETING HEPATITIS B VIRUS GENE” (priority 2023, published 2026).

What was measured:
[1] = system: type D HBV core antigen (HBcAg) reporter cell line; experiment: sgRNA lentiviral library screening, HBcAg reporter cell line (NGS reads in GFP-negative cells); format: cell-based; settings: sgRNA in GFP-negative cell population, day 14 after transfection of EPIREG
Text: (§1) In this example, the type D HBV X protein (HBx), core antigen (HBcAg), and surface antigen (HBsAg) reporter cell lines were used for library screening. First, a sgRNA cell library of type D HBV gene was constructed using a reporter cell line according to the method described in example 1. The sgRNA library was packaged into lentivirus to obtain a sgRNA lentiviral library (carrying red fluorescence), the reporter cell line was infected with the lentiviral library, and the red fluorescence was sorted to obtain the sgRNA cell library. Each cell in this sorted cell library integrated a single sgRNA in the library while the cell itself carried a reporter sequence (carrying green fluorescence). The EPIREG tool described in example 2 (the amino acid sequence of the tool was SEQ ID NO: 1194) (carrying blue fluorescence) was transfected and delivered into a cell library carrying both sgRNA and reporter sequences. Red/green/blue fluorescent triple-positive cells were sorted using a flow cytometer and cultured long-term. The EPIREG transfected into the cells could work together with the sgRNA to silence GFP in the reporter. On the day 14 after transfection, the GFP-negative cell population in the cell library was sorted, the genomic DNA of the negative cell population was extracted for NGS sequencing. The sgRNAs with higher sequencing reads in the negative cell population were compared using the untreated cell library as a control reference, so as to obtain the candidate sgRNAs that could play an editing role corresponding to each reporter, respectively (the schematic diagram of this screening scheme is shown in FIG. 6, and the analysis method is referenced to the literature DOI: 10.1186/s13059-014-0554-4). The functionally validated sgRNAs for each reporter cell line are summarized in the following table (arranged by the starting position of the target sequence of each sgRNA).

[2] = system: type D HBV X protein (HBx) reporter cell line; experiment: sgRNA lentiviral library screening, HBx reporter cell line (NGS reads in GFP-negative cells); format: cell-based; settings: sgRNA in GFP-negative cell population, day 14 after transfection of EPIREG
Text: as §1

Row | Substance | Log2 FC [1] | Log2 FC [2]
1 | 496 (guide CGGCTAGGAGTTCCGCAGTA; listed as DNA, chemistry not fully specified) [compound 496] | 2.9031 | 7.3529
2 | 451 (guide CCTGCTGCGAGCAAAACAAG; listed as DNA, chemistry not fully specified) [compound 451] | 2.9406 | 5.3958
3 | 1104 (guide TTCCCGATACAGAGCTGAGG; listed as DNA, chemistry not fully specified) [compound 1104] | 3.9205 | –
4 | 204 (guide AGGTTCCACGCACGCGCTGA; listed as DNA, chemistry not fully specified) [compound 204] | – | 3.0712
5 | 1068 (guide TGGTGAGGTGAACAATGCTC; listed as DNA, chemistry not fully specified) [compound 1068] | 2.5736 | –
6 | 841 (guide GTGAAAAAGTTGCATGGTGC; listed as DNA, chemistry not fully specified) [compound 841] | 2.0112 | –
7 | 958 (guide TCCTGCGGACGACCCTTCTC; listed as DNA, chemistry not fully specified) [compound 958] | 3.1878 | 3.9999
8 | 305 (guide CACAGAAAGGCCTTGTAAGT; listed as DNA, chemistry not fully specified) [compound 305] | 2.1583 | 4.9316
9 | 484 (guide CGCCGACGGGACGTAAACAA; listed as DNA, chemistry not fully specified) [compound 484] | – | 3.3079
10 | 612 (guide GACGCAACCCCCACTGGCTG; listed as DNA, chemistry not fully specified) [compound 612] | 2.8035 | 6.7125
11 | 1033 (guide TGCGAGCAAAACAAGCGGCT; listed as DNA, chemistry not fully specified) [compound 1033] | – | 3.1795
12 | 70 (guide ACAAGAGTTGCCTGAACTTT; listed as DNA, chemistry not fully specified) [compound 70] | 2.5329 | –
13 | 1065 (guide TGGTCGGTCGGAACGGCAGA; listed as DNA, chemistry not fully specified) [compound 1065] | 2.8985 | 6.0793
14 | 750 (guide GGCTTCCCGATACAGAGCTG; listed as DNA, chemistry not fully specified) [compound 750] | 4.6799 | –
15 | 249 (guide ATGACCAAGCCCCAGCCAGT; listed as DNA, chemistry not fully specified) [compound 249] | 2.8648 | 5.9752
16 | 254 (guide ATGGATACGATGTATATTTG; listed as DNA, chemistry not fully specified) [compound 254] | – | 3.4564
17 | 553 (guide CTGGCCGTTGCCGGGCAACG; listed as DNA, chemistry not fully specified) [compound 553] | 2.4462 | 3.9905
18 | 200 (guide AGGTGCGCCCCGTGGTCGGT; listed as DNA, chemistry not fully specified) [compound 200] | – | 7.535
19 | 113 (guide ACGATGTATATTTGCGGGAG; listed as DNA, chemistry not fully specified) [compound 113] | 2.0632 | –
20 | 427 (guide CCGCAGGATTCAGCGCCGAC; listed as DNA, chemistry not fully specified) [compound 427] | 3.4136 | –
21 | 197 (guide AGGTCTGGAGCAAACATTAT; chemistry not given here) [compound 197] | – | 3.6817
22 | 657 (guide GCAAACACTTGGCACAGACC; listed as DNA, chemistry not fully specified) [compound 657] | 1.9192 | 3.2226
23 | 560 (guide CTGTGCCTTGGGTGGCTTTG; listed as DNA, chemistry not fully specified) [compound 560] | 2.7695 | –

Row | Substance | Log2 FC [1] | Log2 FC [2]
24 | 650 (guide GATTGAATACATGCATACAA; listed as DNA, chemistry not fully specified) [compound 650] | – | 3.726
25 | 81 (guide ACACGGTCCGGCAGATGAGA; listed as DNA, chemistry not fully specified) [compound 81] | 2.0776 | –
26 | 628 (guide GAGGTGAAGCGAAGTGCACA; listed as DNA, chemistry not fully specified) [compound 628] | 3.2225 | –
27 | 1132 (guide TTTACCCCGTTGCCCGGCAA; listed as DNA, chemistry not fully specified) [compound 1132] | 2.1043 | 4.252
28 | 981 (guide TCTAGAAGATCTCGTACTGA; listed as DNA, chemistry not fully specified) [compound 981] | 2.1673 | –
29 | 735 (guide GGCACAGACCTGGCCGTTGC; listed as DNA, chemistry not fully specified) [compound 735] | – | 4.08
30 | 1008 (guide TGACGCAACCCCCACTGGCT; listed as DNA, chemistry not fully specified) [compound 1008] | 1.8835 | 4.9717
31 | 257 (guide ATGGGCCATCAGCGCGTGCG; listed as DNA, chemistry not fully specified) [compound 257] | – | 6.5564
32 | 335 (guide CAGATGAGAAGGCACAGACG; listed as DNA, chemistry not fully specified) [compound 335] | – | 4.44
33 | 39 (guide AACCCCCACTGGCTGGGGCT; listed as DNA, chemistry not fully specified) [compound 39] | 3.4538 | –
34 | 327 (guide CACTGGCTGGGGCTTGGTCA; listed as DNA, chemistry not fully specified) [compound 327] | 1.8664 | 5.8386
35 | 225 (guide ATACCGCCTCAGCTCTGTAT; listed as DNA, chemistry not fully specified) [compound 225] | 3.966 | –
36 | 788 (guide GGGTTGCGTCAGCAAACACT; listed as DNA, chemistry not fully specified) [compound 788] | – | 4.4031
37 | 872 (guide TAAAGACTGGGAGGAGTTGG; listed as DNA, chemistry not fully specified) [compound 872] | 3.0933 | –
38 | 1006 (guide TGACCAAGCCCCAGCCAGTG; listed as DNA, chemistry not fully specified) [compound 1006] | 4.2194 | 7.0191
39 | 120 (guide ACTACTAGGTCTCTAGATGC; chemistry not given here) [compound 120] | 2.9841 | –
40 | 139 (guide AGACACCAAATACTCTATAA; listed as DNA, chemistry not fully specified) [compound 139] | 2.8391 | –
41 | 357 (guide CATGACCAAGCCCCAGCCAG; listed as DNA, chemistry not fully specified) [compound 357] | 3.1523 | 6.2753
42 | 74 (guide ACAATGCTCAGGAGACTCTA; listed as DNA, chemistry not fully specified) [compound 74] | 2.1202 | –
43 | 450 (guide CCTGCGGACGACCCTTCTCG; listed as DNA, chemistry not fully specified) [compound 450] | – | 4.242
44 | 539 (guide CTGACGCAACCCCCACTGGC; listed as DNA, chemistry not fully specified) [compound 539] | – | 3.1536
45 | 498 (guide CGGGGAGTCCGCGTAAAGAG; listed as DNA, chemistry not fully specified) [compound 498] | – | 2.939
46 | 762 (guide GGGCAACGGGGTAAAGGTTC; listed as DNA, chemistry not fully specified) [compound 762] | – | 4.8522
